These results are taken from patent US10882857B2, “Bicyclic compounds as ATX inhibitors” (Hoffmann-La Roche Inc., priority 2017, dated 2021).

The structures appear in SMILES notation.

This test addresses ATX (human His-tagged) (Homo sapiens (Human), UniProt Q13822). In words: Human ATX enzyme inhibition assay (fluorescence quenching, MR121 substrate). It counts as biochemical. Particulars: 30 nM ATX, 1 μM MR121 substrate, 30° C. As to the method:
Human ATX Enzyme Inhibition Assay
ATX inhibition was measured by a fluorescence quenching assay using a specifically labeled substrate analogue (MR121 substrate). To obtain this MR121 substrate, BOC and TBS protected 6-amino-hexanoic acid (R)-3-({2-[3-(2-{2-[2-(2-amino-ethoxy)-ethoxy]-ethoxy-}ethoxy)-propionylamino]-ethoxy}-hydroxy-phosphoryloxy)-2-hydroxy-propyl ester (Ferguson et al., Org Lett 2006, 8 (10), 2023) was labeled with MR121 fluorophore (CAS 185308-24-1, 1-(3-carboxypropyl)-11-ethyl-1,2,3,4,8,9,10,11-octahydro-dipyrido[3,2-b:2′,3′-i]phenoxazin-13-ium) on the free amine of the ethanolamine side and then, after deprotection, subsequently with tryptophan on the side of the aminohexanoic acid.
Assay working solutions were made as follows:
Assay buffer (50 mM Tris-HCl, 140 mM NaCl, 5 mM KCl, 1 mM CaCl2, 1 mM MgCl2, 0.01% Triton-X-100, pH 8.0;
ATX solution: ATX (human His-tagged) stock solution (1.08 mg/mL in 20 mM bicine, pH 8.5, 0.15 M NaCl, 10% glycerol, 0.3% CHAPS, 0.02% NaN3), diluted to 1.4-2.5× final concentration in assay buffer;
MR121 substrate solution: MR121 substrate stock solution (800 μM MR121 substrate in DMSO), diluted to 2-5× final concentration in assay buffer.
Test compounds (10 mM stock in DMSO, 8 μL) were obtained in 384 well sample plates (Corning Costar #3655) and diluted with 8 μL DMSO. Row-wise serial dilutions were made by transferring 8 μL cpd solution to the next row up to row O. The compound and control solutions were mixed five times and 2 μL were transferred to 384 well assay plates (Corning Costar #3702). Then, 15 μL of 41.7 nM ATX solution was added (30 nM final concentration), mixed five times and then incubated for 15 minutes at 30° C. 10 μL of MR121 substrate solution was added (1 μM final concentration), mixed 30 times and then incubated for 15 minutes at 30° C.
Fluorescence was then measured every 2 minutes for 1 hour (Perkin Elmer plate: vision multimode reader); light intensity: 2.5%; exp. time: 1.4 sec, Filter: Fluo_630/690 nm) and IC50 values were calculated from these readouts.
`O=C(c1cc(OCC2CCOCC2)nc(C2CC2)c1)N1Cc2ccc(C(=O)N3CCc4c(O)noc4C3)cc2C1` [Example 2, [2-[2-Cyclopropyl-6-(oxan-4-ylmethoxy)pyridine-4-carbonyl]-1,3-dihydroisoindol-5-yl]-(3-hydroxy-5,7-dihydro-4H-[1,2]oxazolo[5,4-c]pyridin-6-yl)methanone] yielded an IC50 of 24 nM.
The figure for `CC(C)(C)C(=O)Nc1cc(C(F)(F)F)cnc1COC(=O)N1Cc2nc(C(=O)N3CCC(S(N)(=O)=O)CC3)oc2C1` [Example 2.06, [3-(2,2-dimethylpropanoylamino)-5-(trifluoromethyl)pyridin-2-yl]methyl 2-(4-sulfamoylpiperidine-1-carbonyl)-4,6-dihydropyrrolo[3,4-d][1,3]oxazole-5-carboxylate] is 1 nM; for `CC(C)(C)C(=O)Nc1cc(C(F)(F)F)cnc1COC(=O)N1Cc2nc(C(=O)N3CCc4[nH]nnc4C3)oc2C1` [Example 4, [3-(2,2-Dimethylpropanoylamino)-5-(trifluoromethyl)pyridin-2-yl]methyl 2-(1,4,6,7-tetrahydrotriazolo[4,5-c]pyridine-5-carbonyl)-4,6-dihydropyrrolo[3,4-d][1,3]oxazole-5-carboxylate] it is 1 nM; for `O=C(c1cc(OCC2CCOCC2)nc(C2CC2)c1)N1Cc2ccc(C(=O)N3CCc4onc(O)c4C3)cc2C1` [Example 2.02, [2-[2-cyclopropyl-6-(oxan-4-ylmethoxy)pyridine-4-carbonyl]-1,3-dihydroisoindol-5-yl]-(3-hydroxy-6,7-dihydro-4H-[1,2]oxazolo[4,5-c]pyridin-5-yl)methanone] it is 7 nM.
Under `CC(C)(C)C(=O)Nc1cc(C(F)(F)F)cnc1COC(=O)N1Cc2ccc(C(=O)N3CCc4c(O)noc4C3)cc2C1` [Example 2.04, [3-(2,2-dimethylpropanoylamino)-5-(trifluoromethyl)pyridin-2-yl]methyl 5-(3-hydroxy-5,7-dihydro-4H-[1,2]oxazolo[5,4-c]pyridine-6-carbonyl)-1,3-dihydroisoindole-2-carboxylate] stands 7 nM.
The figure for `NS(=O)(=O)C1CCN(C(=O)c2cc3c(s2)CN(C(=O)c2cc(OCC4CCOCC4)nc(C4CC4)c2)C3)CC1` [Example 3.02, 1-[5-[2-cyclopropyl-6-(oxan-4-ylmethoxy)pyridine-4-carbonyl]-4,6-dihydrothieno[2,3-c]pyrrole-2-carbonyl]piperidine-4-sulfonamide] is 7 nM; for `CC(C)(C)C(=O)Nc1cc(C(F)(F)F)cnc1COC(=O)N1Cc2cc(C(=O)N3CCC(S(N)(=O)=O)CC3)sc2C1` [Example 4.02, [3-(2,2-Dimethylpropanoylamino)-5-(trifluoromethyl)pyridin-2-yl]methyl 2-(4-sulfamoylpiperidine-1-carbonyl)-4,6-dihydrothieno[2,3-c]pyrrole-5-carboxylate] it is 1 nM; for `CC(C)(C)C(=O)Nc1cc(C#N)c(Cl)cc1COC(=O)N1Cc2nc(C(=O)N3CCc4c(O)noc4C3)oc2C1` [Example 4.01, [5-chloro-4-cyano-2-(2,2-dimethylpropanoylamino)phenyl]methyl 2-(3-hydroxy-5,7-dihydro-4H-[1,2]oxazolo[5,4-c]pyridine-6-carbonyl)-4,6-dihydropyrrolo[3,4-d][1,3]oxazole-5-carboxylate] it is 7 nM.
Molecule `NS(=O)(=O)C1CCN(C(=O)c2nc3c(s2)CN(C(=O)c2cc(OCC4CCOCC4)nc(C4CC4)c2)C3)CC1` [Example 3.01, 1-[5-[2-cyclopropyl-6-(oxan-4-ylmethoxy)pyridine-4-carbonyl]-4,6-dihydropyrrolo[3,4-d][1,3]thiazole-2-carbonyl]piperidine-4-sulfonamide] showed an IC50 of 2 nM.
The figure for `O=C(c1cc(OCC2CCOCC2)nc(C2CC2)c1)N1Cc2nc(C(=O)N3CCc4c(O)noc4C3)oc2C1` [Example 3, [2-Cyclopropyl-6-(oxan-4-ylmethoxy)pyridin-4-yl]-[2-(3-hydroxy-5,7-dihydro-4H-[1,2]oxazolo[5,4-c]pyridine-6-carbonyl)-4,6-dihydropyrrolo[3,4-d][1,3]oxazol-5-yl]methanone] is 5 nM; for `O=C(c1cc(OCC2CCOCC2)nc(C2CC2)c1)N1CCc2cc(C(=O)N3CCc4[nH]nnc4C3)ccc2C1` [Example 1, [2-[2-Cyclopropyl-6-(oxan-4-ylmethoxy)pyridine-4-carbonyl]-3,4-dihydro-1H-isoquinolin-6-yl]-(1,4,6,7-tetrahydrotriazolo[4,5-c]pyridin-5-yl)methanone] it is 2 nM; for `CC(C)(C)C(=O)Nc1cc(C(F)(F)F)cnc1COC(=O)N1Cc2ccc(C(=O)N3CCc4onc(O)c4C3)cc2C1` [Example 2.05, [3-(2,2-dimethylpropanoylamino)-5-(trifluoromethyl)pyridin-2-yl]methyl 5-(3-hydroxy-6,7-dihydro-4H-[1,2]oxazolo[4,5-c]pyridine-5-carbonyl)-1,3-dihydroisoindole-2-carboxylate] it is 4 nM.
The figure for `NS(=O)(=O)C1CCN(C(=O)c2ccc3c(c2)CN(C(=O)c2cc(OCC4CCOCC4)nc(C4CC4)c2)C3)CC1` [Example 2.01, 1-[2-[2-cyclopropyl-6-(oxan-4-ylmethoxy)pyridine-4-carbonyl]-1,3-dihydroisoindole-5-carbonyl]piperidine-4-sulfonamide] is 10 nM; for `O=C(c1cc(OCC2CCOCC2)nc(C2CC2)c1)N1Cc2nc(C(=O)N3CCc4[nH]nnc4C3)oc2C1` [Example 1.01, [2-cyclopropyl-6-(oxan-4-ylmethoxy)pyridin-4-yl]-[2-(1,4,6,7-tetrahydrotriazolo[4,5-c]pyridine-5-carbonyl)-4,6-dihydropyrrolo[3,4-d][1,3]oxazol-5-yl]methanone] it is 2 nM; for `CC(C)(C)C(=O)Nc1cc(C(F)(F)F)cnc1COC(=O)N1Cc2ccc(C(=O)N3CCC(S(N)(=O)=O)CC3)cc2C1` [Example 2.03, [3-(2,2-dimethylpropanoylamino)-5-(trifluoromethyl)pyridin-2-yl]methyl 5-(4-sulfamoylpiperidine-1-carbonyl)-1,3-dihydroisoindole-2-carboxylate] it is 7 nM.

For orientation: IC50 means the concentration that gives 50% inhibition. A low value points to greater potency in that assay.
